From US10759781B2, “Substituted guanidine derivatives” (UBE INDUSTRIES, LTD., priority 2015, dated 2020)

Biological target: T1, Human VAP-1 enzyme (Homo sapiens, UniProt Q16853)
T1 construct: purchased R&D Systems, Inc
T1 sequence (Q16853 1-763): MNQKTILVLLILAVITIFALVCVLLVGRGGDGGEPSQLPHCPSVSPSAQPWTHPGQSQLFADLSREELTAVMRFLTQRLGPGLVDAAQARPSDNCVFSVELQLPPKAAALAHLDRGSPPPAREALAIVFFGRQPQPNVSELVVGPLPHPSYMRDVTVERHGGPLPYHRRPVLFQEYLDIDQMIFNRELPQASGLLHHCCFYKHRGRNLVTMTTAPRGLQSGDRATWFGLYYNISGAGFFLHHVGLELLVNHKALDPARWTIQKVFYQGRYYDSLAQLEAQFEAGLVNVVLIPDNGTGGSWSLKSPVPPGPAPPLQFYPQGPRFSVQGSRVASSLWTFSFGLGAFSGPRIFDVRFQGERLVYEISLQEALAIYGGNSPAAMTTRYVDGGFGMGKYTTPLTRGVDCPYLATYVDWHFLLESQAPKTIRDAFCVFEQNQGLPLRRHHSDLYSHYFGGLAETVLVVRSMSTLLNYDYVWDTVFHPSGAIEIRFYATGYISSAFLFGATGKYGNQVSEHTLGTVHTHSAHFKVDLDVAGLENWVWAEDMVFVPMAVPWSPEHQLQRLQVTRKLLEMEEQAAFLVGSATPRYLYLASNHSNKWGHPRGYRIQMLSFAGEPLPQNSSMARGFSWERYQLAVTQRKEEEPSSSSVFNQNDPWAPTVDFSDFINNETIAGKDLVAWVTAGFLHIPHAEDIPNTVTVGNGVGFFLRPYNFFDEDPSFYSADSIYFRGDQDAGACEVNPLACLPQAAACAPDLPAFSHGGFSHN
Experiment: Human VAP-1 enzyme inhibition test
Assay type: biochemical
Conditions: 1 h; compound 30 nM; 14C-benzylamine 100 μM; read-out: inhibition ratio (human VAP-1 enzyme)
Experimental: Human VAP-1 enzyme inhibition test
This test was conducted by modifying the method of P. H. Yu et al. (Diabetologia 40 1243 (1997)). Human VAP-1 enzyme (R&D Systems, Inc.) was pre-incubated in a 96-well plate with the compound dissolved in dimethylsulfoxide at room temperature for 20 minutes. Next, in a solution to the final volume of 200 μL, the enzyme reaction solution was incubated with ^14C-benzylamine (final concentration 100 μM) at 37° C. for 1 hour. The reaction was terminated by the addition of 100 μL of 2 M citric acid solution to the reaction solution. The oxidative product was extracted using a toluene/ethyl acetate mixture and the radioactivity was measured with a liquid scintillation counter. The inhibition ratio of the compound was calculated using the following equation. Inhibition ratio={1−[VAP-1 enzyme activity after treatment with the compound]/[VAP-1 enzyme activity in the presence of dimethylsulfoxide alone without the compound]}×100

Structure (SMILES)	inhibition at 0.03 µM [%]
N=C(N)NC(=O)OCc1cccc(-c2cnc(N3CC(=NOCCCC(=O)O)C3)nc2)c1F [Example 115, 4-[({1-[5-(3-{[(Carbamimidoylcarbamoyl)oxy]methyl}-2-fluorophenyl)pyrimidin-2-yl]azetidin-3-ylidene}amino)oxy]butanoic acid]	≥ 50
CNC(=O)CCCON=C1CN(c2ncc(-c3cccc(COC(=O)NC(=N)N)c3F)cn2)C1 [Example 116, 2-Fluoro-3-[2-(3-{[4-(methylamino)-4-oxobutoxy]imino}azetidin-1-yl)pyrimidin-5-yl]benzyl carbamimidoylcarbamate]	≥ 50
CN(CCON=C1CN(c2ncc(-c3cccc(COC(=O)NC(=N)N)c3F)cn2)C1)Cc1ccccc1 [Example 118, 3-{2-[3-({2-[Benzyl(methyl)amino]ethoxy}imino)azetidin-1-yl]pyrimidin-5-yl}-2-fluorobenzyl carbamimidoylcarbamate]	≥ 50
CC(=O)NCC(CO)CON=C1CN(c2ncc(-c3cccc(COC(=O)NC(=N)N)c3F)cn2)C1 (centres unmarked) [Example 120, 3-[2-(3-{[3-Acetamido-2-(hydroxymethyl)propoxy]imino}azetidin-1-yl)pyrimidin-5-yl]-2-fluorobenzyl carbamimidoylcarbamate]	≥ 50
CN(C)CC(CO)CON=C1CN(c2ncc(-c3cccc(COC(=O)NC(=N)N)c3F)cn2)C1 (centres unmarked) [Example 122, 3-[2-(3-{[3-(Dimethylamino)-2-(hydroxymethyl)propoxy]imino}azetidin-1-yl)pyrimidin-5-yl]-2-fluorobenzyl carbamimidoylcarbamate]	≥ 50
COC(CNC(C)=O)CON=C1CN(c2ncc(-c3cccc(COC(=O)NC(=N)N)c3F)cn2)C1 (centres unmarked) [Example 123, 3-(2-{3-[(3-Acetamido-2-methoxypropoxy)imino]azetidin-1-yl}pyrimidin-5-yl)-2-fluorobenzyl carbamimidoylcarbamate]	≥ 50
N=C(N)NC(=O)OCc1cccc(-c2cnc(N3CC(=NOCCN4CCOCC4)C3)nc2)c1F [Example 125, 2-Fluoro-3-(2-{3-[(2-morpholinoethoxy)imino]azetidin-1-yl}pyrimidin-5-yl)benzyl carbamimidoylcarbamate]	≥ 50
CC(=O)N1CCOC(CON=C2CN(c3ncc(-c4cccc(COC(=O)NC(=N)N)c4F)cn3)C2)C1 (centres unmarked) [Example 131, 3-[2-(3-{[(4-Acetylmorpholin-2-yl)methoxy]imino}azetidin-1-yl)pyrimidin-5-yl]-2-fluorobenzyl carbamimidoylcarbamate]	≥ 50
N=C(N)NC(=O)OCc1cccc(-c2cnc(N3CC(=NOCC4CCC(=O)O4)C3)nc2)c1F (centres unmarked) [Example 132, 2-Fluoro-3-[2-(3-{[(5-oxotetrahydrofuran-2-yl)methoxy]imino}azetidin-1-yl)pyrimidin-5-yl]benzyl carbamimidoylcarbamate]	≥ 50
N=C(N)NC(=O)OCc1cccc(-c2cnc(N3CC(=NOCc4ccccc4)C3)nc2)c1F [Example 135, 3-(2-{3-[(Benzyloxy)imino]azetidin-1-yl}pyrimidin-5-yl)-2-fluorobenzyl carbamimidoylcarbamate]	≥ 50
COc1ccc(CON=C2CN(c3ncc(-c4cccc(COC(=O)NC(=N)N)c4F)cn3)C2)cc1 [Example 136, 2-Fluoro-3-[2-(3-{[(4-methoxybenzyl)oxy]imino}azetidin-1-yl)pyrimidin-5-yl]benzyl carbamimidoylcarbamate]	≥ 50
CC(=O)N1CC(ON=C2CN(c3ncc(-c4cccc(COC(=O)NC(=N)N)c4F)cn3)C2)C1 [Example 138, 3-[2-(3-{[(1-Acetylazetidin-3-yl)oxy]imino}azetidin-1-yl)pyrimidin-5-yl]-2-fluorobenzyl carbamimidoylcarbamate]	≥ 50

Next, values leading:

inhibition at 0.03 µM [%]	Structure (SMILES)
≥ 50	CNC(=O)CON=C1CN(c2ncc(-c3cccc(COC(=O)NC(=N)N)c3F)cn2)C1 [Example 111, 2-Fluoro-3-[2-(3-{[2-(methylamino)-2-oxoethoxy]imino}azetidin-1-yl)pyrimidin-5-yl]benzyl carbamimidoylcarbamate]
≥ 50	N=C(N)NC(=O)OCc1cccc(-c2cnc(N3CC(=NOCCC(N)=O)C3)nc2)c1F [Example 112, 3-(2-{3-[(3-Amino-3-oxopropoxy)imino]azetidin-1-yl}pyrimidin-5-yl)-2-fluorobenzyl carbamimidoylcarbamate]
≥ 50	CNC(=O)CCON=C1CN(c2ncc(-c3cccc(COC(=O)NC(=N)N)c3F)cn2)C1 [Example 113, 2-Fluoro-3-[2-(3-{[3-(methylamino)-3-oxopropoxy]imino}azetidin-1-yl)pyrimidin-5-yl]benzyl carbamimidoylcarbamate]
≥ 50	CCOC(=O)CCCON=C1CN(c2ncc(-c3cccc(COC(=O)NC(=N)N)c3F)cn2)C1 [Example 114, Ethyl 4-[({1-[5-(3-{[(carbamimidoylcarbamoyl)oxy]methyl}-2-fluorophenyl)pyrimidin-2-yl]azetidin-3-ylidene}amino)oxy]butanoate]
≥ 50	CN(C)CCON=C1CN(c2ncc(-c3cccc(COC(=O)NC(=N)N)c3F)cn2)C1 [Example 117, 3-[2-(3-{[2-(Dimethylamino)ethoxy]imino}azetidin-1-yl)pyrimidin-5-yl]-2-fluorobenzyl carbamimidoylcarbamate]
≥ 50	N=C(N)NC(=O)OCc1cccc(-c2cnc(N3CC(=NOCCN4CCCCC4)C3)nc2)c1F [Example 124, 2-Fluoro-3-[2-(3-{[2-(piperidin-1-yl)ethoxy]imino}azetidin-1-yl)pyrimidin-5-yl]benzyl carbamimidoylcarbamate]
≥ 50	N=C(N)NC(=O)OCc1cccc(-c2cnc(N3CC(=NOCCN4CCC4)C3)nc2)c1F [Example 126, 3-[2-(3-{[2-(Azetidin-1-yl)ethoxy]imino}azetidin-1-yl)pyrimidin-5-yl]-2-fluorobenzyl carbamimidoylcarbamate]
≥ 50	N=C(N)NC(=O)OCc1cccc(-c2cnc(N3CC(=NOCCN4CC(F)C4)C3)nc2)c1F [Example 128, 2-Fluoro-3-[2-(3-{[2-(3-fluoroazetidin-1-yl)ethoxy]imino}azetidin-1-yl)pyrimidin-5-yl]benzyl carbamimidoylcarbamate]
≥ 50	CN1CCOC(CON=C2CN(c3ncc(-c4cccc(COC(=O)NC(=N)N)c4F)cn3)C2)C1 (centres unmarked) [Example 130, 2-Fluoro-3-[2-(3-{[(4-methylmorpholin-2-yl)methoxy]imino}azetidin-1-yl)pyrimidin-5-yl]benzyl carbamimidoylcarbamate]
≥ 50	CN1CC(ON=C2CN(c3ncc(-c4cccc(COC(=O)NC(=N)N)c4F)cn3)C2)C1 [Example 137, 2-Fluoro-3-[2-(3-{[(1-methylazetidin-3-yl)oxy]imino}azetidin-1-yl)pyrimidin-5-yl]benzyl carbamimidoylcarbamate]
≥ 50	N=C(N)NC(=O)OCc1cccc(-c2cnc(N3CC(=NOC4CN(Cc5ccccc5)C4)C3)nc2)c1F [Example 139, 3-[2-(3-{[(1-Benzylazetidin-3-yl)oxy]imino}azetidin-1-yl)pyrimidin-5-yl]-2-fluorobenzyl carbamimidoylcarbamate]
